Source: patent publication US6358491B1, “Somatostatin analogs” (Berlex Laboratories, Inc., priority 1999, dated 2002)
Read-outs that look alike come from different tables or passages of the source. Where a SMILES comes first, the peptide text is derived from it. [ ]: non-standard residue; d: D form. ξ: configuration not given here. NMehCys = CN[C@@H](CCS)C(=O)O; Thr(3ξ) = CC(O)[C@H](N)C(=O)O

How the values were obtained:
SSTRs, NCI-H69 membranes = test: [125I]SST-14 binding to NCI-H69 cell membranes (SSTR affinity); design: species or system human; conditions: inhibition of [125I]SST-14 binding, two-site fit
Experimental: [^125I-Tyr^11] somatostatin-14 ([^125I]SST-14) was obtained from Amersham. Unlabeled somatostatin-14 was purchased either from BACHEM (Torrance, Calif.) or from Sigma Chemical Co. (St. Louis, Mo.). Protease inhibitors, leupeptin, aprotinin, bacitracin, and benzamidine and other reagents were obtained from Sigma. Protease inhibitors were prepared in dimethylsulfoxide (DMSO) at a concentration 500×higher than the final assay concentration. The prepared protease solution was stored at −20° C. and diluted with the buffer solution before use.
Membrane preparations used in these studies were prepared from two commercially available tumor cell lines, the human small cell lung cancer cell line, NCI-H69, and the rat pancreatic tumor cell line, AR42J, obtained from American Type Culture Collection (ATCC) (Manassas, Va.). NCI-H69 cells were maintained by serial passage in RPMI 1640 with 10% fetal calf serum. AR42J cells were maintained in F-12K medium containing 20% fetal calf serum. Cells in culture flasks were incubated at 37° C. with 5% CO2 in air atmosphere following the recommendations of the “Product Sheet” from ATCC.
Cultured cells were first detached from plates with phosphate-buffered saline, pH 7.4, containing 2 mM EDTA, and centrifuged at 1,500×g for 10 min. Cells were then resuspended in 5-10 mL of the homogenization buffer (1 mM sodium bicarbonate, pH 7.4, 1 mM EDTA, 1 mM EGTA, 2.5 mM DTT, 5 μg/mL leupeptin, 5 μg/mL aprotinin, 100 μg/mL bacitracin, 100 μg/mL benzamidine) for 10 min on ice. The cells were lysed for 30 sec twice in a polytron with a setting at 5. The lysate was centrifuged at 1,000×g for 10 min at 4° C. The supernatant was centrifuged at 40,000×g for 20 min at 4° C. This step was repeated twice with the homogenization buffer in the absence of protease inhibitors. The pellet was then resuspended at 1-5 mg membrane protein/mL in 25 mM Tris, pH 7.4 without the addition of protease inhibitors and the membranes were stored at −80° C. before use. Membrane protein concentration was determined spectroscopically using the bicinchonic acid (BCA) protein assay kit (Pierce Chemical Inc. (Rockford, Ill.).
All [^125I]SST-14 binding assays were performed in 0.5 mL binding buffer containing 50 mM HEPES, pH 7.5, 10 mM MgCl2, 0.25% BSA (w/v) containing protease inhibitors (same as above) and incubated at 37° C. for 45 minutes. After incubation, samples were kept at 4° C. and rapidly filtered under vacuum through a Whatman GF/B glass fiber filter with a 12-well harvester (Skatron Instruments Inc., Sterling, Va.). The filter was washed for 9 seconds with cold 50 mM HEPES, pH 7.5, 10 mM MgCl2, 0.25% BSA (w/v). Thirty-five […] of [^125I]SST-14 from Amersham was used in each tube. Peptides were solubilized in DMSO and serially diluted with DMSO. Five μL of peptide in DMSO was used to obtain the final concentration. DMSO (5 μL) was added to the tube without the addition of any peptide or unlabeled SST-14, so that each tube contained 1% DMSO. Non-specific binding was defined as the binding of [^125I]SST-14 which was not displaceable with an excess of unlabeled SST-14 at a concentration of 1×10^−6 M. The bound [^125I]SST-14 without or with excess unlabeled SST-14 (1×10^−6 M) was defined as total binding and nonspecific binding, respectively. The difference between total and nonspecific binding was defined as specific binding. The percent inhibition (% Inh) by peptide was expressed as
% Inh=(total binding−total binding in the presence of peptide)/specific binding×100%
Inclusion of protease inhibitors in homogenizing medium as well as assay buffer is essential to maintain the integrity of both [^125I]SST-14 and somatostatin analogs for the receptor binding assay and to obtain optimal specific binding. The highest specific binding was observed when MgCl2 (10 mM) was included. Membranes were finally resuspended in a sodium-free medium and receptor binding assays were performed in the absence of sodium ions. […]

AR42J tumor xenografts = test: Biodistribution of 99mTc-labeled compounds in nude mice with AR42J tumor xenografts; type: in vivo; conditions: 99mTc-labeled compound, 90 minutes post-injection; for TUMOR: i.v.; for T:B: tumor to blood ratio; for T:M: tumor to muscle ratio
Experimental: Rat pancreatic AR42J cells (ATCC, Rockville, Md., USA) were grown in Modified Ham's F12K medium (Cat. No. N-3520, Sigma, St. Louis, Mo., USA) containing 20% fetal bovine serum (FCS) (Cat. No. 1224, Lot No. 9702058, Sigma, St. Louis, Mo., USA) under sterile conditions in 95% humidity and 5% CO2. At a density of approximately 10×10^6 cells per T150 flask, the cells were harvested with trypsin and collected by centrifugation at 2400 rpm (800×g) for 15 minutes in a benchtop centrifuge (IEC Centra-8 tabletop centrifuge, International Equipment Company, Needham, Mass., USA). The cells were resuspended in medium containing 20% FCS for implantation.
Six female nude mice (CrlLNU/NU-nuBR, 6-8 weeks old) were injected subcutaneously into the right flank with tumor cells (2×10^7/100 μL) in 20% matrigel (Collaborative Biomedical Products, Chicago, Ill., USA). Fourteen days after inoculation tumors were visible in all animals. Three weeks after inoculation, tumors were aseptically dissected, minced and implanted into 60 nude mice using a trochar. The tumor xenografts from the second passage were used for biodistribution studies.
A dose of approximately 50-100 μCi ^99mTc-labeled compound/mouse was injected intravenously in a total volume of 100 μL. Mice were sacrificed 90 minutes post-injection by decapitation and the trunk blood was collected. Tumors (1 to 3 per mouse), liver, gastrointestinal tract, kidneys, and samples of muscle from both legs (quadriceps femoralis) were collected, weighed, and counted for radioactivity.

[1] = read-out: IC50 Values for Uncomplexed Compounds, NCI-H69 (first value)
[2] = read-out: IC50 Values for Uncomplexed Compounds, NCI-H69 (second value)

Row | IC50 (SSTRs, NCI-H69 membranes; [1]) | IC50 (SSTRs, NCI-H69 membranes; [2]) | TUMOR (AR42J tumor xenografts) | T:B (AR42J tumor xenografts) | T:M (AR42J tumor xenografts) | Structure (SMILES)
1 | 0.346 nM | 234 nM | 10.2 %ID/g | 48 | 104 | C[C@@H](O)[C@@H]1NC(=O)[C@H](CCCCN)NC(=O)[C@@H](Cc2c[nH]c3ccccc23)NC(=O)[C@H](Cc2ccc(O)cc2)NC(=O)[C@H](CCSCC(=O)NC[C@H](N)C(=O)N[C@@H](CCCCN)C(=O)N[C@@H](CS)C(=O)N[C@H](CO)[C@@H](C)O)N(C)C(=O)[C@H](Cc2ccccc2)NC1=O [cyclo-Tyr-D-Trp-Lys-Thr-Phe-(N—CH3)Hcy(CH2 CO-β-Dap-Lys-Cys-Thr(ol))]
2 | 0.21 nM | – | – | – | – | CC(C)[C@@H]1NC(=O)[C@H](CCCCN)NC(=O)[C@@H](Cc2c[nH]c3ccccc23)NC(=O)[C@H](Cc2ccc(O)cc2)NC(=O)[C@H](CCS)N(C)C(=O)[C@H](Cc2ccccc2)NC1=O [cyclo-YWDKVF.(N—CH3).Hcy.] (cyclo(Y[dW]KVF[NMehCys]))
3 | 0.388 nM | 0.388 nM | – | – | – | C[C@@H](O)[C@H](NC(=O)[C@H](CS)NC(=O)[C@H](Cc1ccc(N)cc1)NC(=O)[C@@H](N)CNC(=O)CSCC[C@H]1C(=O)N[C@@H](Cc2ccc(O)cc2)C(=O)N[C@H](Cc2c[nH]c3ccccc23)C(=O)N[C@@H](CCCCN)C(=O)N[C@@H]([C@@H](C)O)C(=O)N[C@@H](Cc2ccccc2)C(=O)N1C)C(=O)NC(CO)CO [cyclo-YWDKTF.(N—CH3)Hcy(CH2CO.β-Dap.F(4-NH2).CT.S(ol))]
4 | 0.641 nM | 0.641 nM | – | – | – | C[C@@H](O)[C@H](NC(=O)[C@H](CS)NC(=O)[C@H](Cc1ccc(N)cc1)NC(=O)[C@@H](N)CNC(=O)CSCC[C@H]1C(=O)N[C@@H](Cc2ccc(O)cc2)C(=O)N[C@H](Cc2c[nH]c3ccccc23)C(=O)N[C@@H](CCCCN)C(=O)N[C@@H]([C@@H](C)O)C(=O)N[C@@H](Cc2ccccc2)C(=O)N1C)C(=O)O [cyclo-Tyr-D-Trp-Lys-Thr-Phe-(N—CH3)Hcy(CH2 CO-β-Dap-Phe(4-NH2)-Cys-Thr)]
5 | 0.645 nM | > 1000 nM | 10.6 %ID/g | 44 | 132 | C[C@@H](O)[C@@H]1NC(=O)[C@H](CCCCN)NC(=O)[C@@H](Cc2c[nH]c3ccccc23)NC(=O)[C@H](Cc2ccc(O)cc2)NC(=O)[C@H](CCSCC(=O)N[C@@H](CO)C(=O)N[C@@H](CO)C(=O)N[C@@H](CS)C(=O)NCCOCCOCCN)N(C)C(=O)[C@H](Cc2ccccc2)NC1=O [cyclo-Tyr-D-Trp-Lys-Thr-Phe-(N—CH3)Hcy(CH2 CO-Ser-Ser-Cys-NH(CH2 CH2 O)2 CH2 CH2 NH2)]
6 | 0.642 nM | > 1000 nM | – | – | – | C[C@@H](O)[C@@H]1NC(=O)[C@H](CCCCN)NC(=O)[C@@H](Cc2c[nH]c3ccccc23)NC(=O)[C@H](Cc2ccc(O)cc2)NC(=O)[C@H](CCSCC(=O)NC[C@H](N)C(=O)N[C@@H](CCN)C(=O)N[C@@H](CS)C(=O)N[C@H](CO)[C@@H](C)O)N(C)C(=O)[C@H](Cc2ccccc2)NC1=O [cyclo-Tyr-D-Trp-Lys-Thr-Phe-(N—CH3)Hcy(CH2 CO-β-Dap-Dab-Cys-Thr(ol))]
7 | 0.449 nM | 46.8 nM | – | – | – | C[C@@H](O)[C@@H]1NC(=O)[C@H](CCCCN)NC(=O)[C@@H](Cc2c[nH]c3ccccc23)NC(=O)[C@H](Cc2ccc(O)cc2)NC(=O)[C@H](CCSCC(=O)NC[C@H](N)C(=O)N[C@@H](CN)C(=O)N[C@@H](CS)C(=O)N[C@H](CO)[C@@H](C)O)N(C)C(=O)[C@H](Cc2ccccc2)NC1=O [cyclo-Tyr-D-Trp-Les-Thr-Phe-(N—CH3)Hcy(CH2 CO-β-Dap-Dap-Cys-Thr(ol))]
8 | 0.505 nM | 744 nM | 10.3 %ID/g | 24 | 96 | C[C@@H](O)[C@@H]1NC(=O)[C@H](CCCCN)NC(=O)[C@@H](Cc2c[nH]c3ccccc23)NC(=O)[C@H](Cc2ccc(O)cc2)NC(=O)[C@H](CCSCC(=O)NC[C@H](N)C(=O)N[C@@H](CCCN)C(=O)N[C@@H](CS)C(=O)N[C@H](CO)[C@@H](C)O)N(C)C(=O)[C@H](Cc2ccccc2)NC1=O [cyclo-Tyr-D-Trp-Lys-Thr-Phe-(N—CH3)Hcy(CH2 CO-β-Dap-Orn-Cys-Thr(ol))]
9 | – | – | 1.8 %ID/g | 29 | 95 | C[C@@H](O)[C@@H]1NC(=O)[C@H](CCCCN)NC(=O)[C@@H](Cc2c[nH]c3ccccc23)NC(=O)[C@H](Cc2ccc(O)cc2)NC(=O)[C@H](CCSCC(=O)NCCC[C@H](N)C(=O)NCC(=O)N[C@@H](CS)C(N)=O)N(C)C(=O)[C@H](Cc2ccccc2)NC1=O [cyclo-Tyr-D-Trp-Lys-Thr-Phe-(N—CH3)Hcy(CH2 CO-δ-Orn-Gly-Cys-NH2)]
10 | 0.413 nM | < 0.001 nM | – | – | – | C[C@@H](O)[C@@H]1NC(=O)[C@H](CCCCN)NC(=O)[C@@H](Cc2c[nH]c3ccccc23)NC(=O)[C@H](Cc2ccc(O)cc2)NC(=O)[C@H](CCSCC(=O)NC[C@H](N)C(=O)N[C@@H](CCCNC(=N)N)C(=O)N[C@@H](CS)C(=O)N[C@H](CO)[C@@H](C)O)N(C)C(=O)[C@H](Cc2ccccc2)NC1=O [cyclo-Tyr-D-Trp-Lys-Thr-Phe-(N—CH3)Hcy(CH2 CO-β-Dap-Arg-Cys-Thr(ol))]
11 | 1.25 nM | 1.25 nM | – | – | – | C[C@@H](O)[C@H](NC(=O)[C@H](CS)NC(=O)[C@H](CCN)NC(=O)[C@@H](N)CNC(=O)CSCC[C@H]1C(=O)N[C@@H](Cc2ccc(O)cc2)C(=O)N[C@H](Cc2c[nH]c3ccccc23)C(=O)N[C@@H](CCCCN)C(=O)N[C@@H]([C@@H](C)O)C(=O)N[C@@H](Cc2ccccc2)C(=O)N1C)C(=O)O [cyclo-Tyr-D-Trp-Lys-Thr-Phe-(N—CH3)Hcy(CH2 CO-β-Dap-Dab-Cys-Thr)]
12 | 0.21 nM | – | – | – | – | CC(O)[C@@H]1NC(=O)[C@H](CCCCN)NC(=O)[C@@H](Cc2c[nH]c3ccccc23)NC(=O)[C@H](Cc2ccc(O)cc2)NC(=O)[C@H](CCS)N(C)C(=O)[C@H](Cc2ccccc2)NC1=O (stereo partly drawn) [cyclo-YWDKTF.(N—CH3).Hcy., cyclo-Tyr-D-Trp-Lys-Thr-Phe-(N—CH3)Hcy] (cyclo(F[NMehCys]Y[dW]K[Thr(3ξ)]))
